Data from patent publication EP2667887B1, “PHARMACEUTICAL COMPOSITION COMPRISING THE PEPTIDE GLU-ASP-GLY AND USE FOR TREATING HELICOBACTER PYLORI INDUCED GASTRODUODENAL DISEASES” («Garmonia», Ltd., priority 2011, dated 2012).

Tests used:
modeled ulcer = experiment: Morphology study of the induced gastric ulcer (cysteamine-HCL + Helicobacter pylori); format: in vivo, Sprague Dawley rats; details: treatment daily for 5 days, Klacid 10 mg intramuscularly
Description: The study was carried out on 90 male Sprague Dawley rats (180-220 g) randomly subdivided into 9 groups (10 animals per group): • Group 1 - intact rats (saline solution) • Group 2 - modeled ulcer + saline solution • Group 3 (6 subgroups) - modeled ulcer + H-Glu-Asp-Gly-OH • Group 4 - modeled ulcer + Klacid antibiotic
Ulcer was modeled by three-time administration (in 4 hours) in the rat stomach of cysteamine-HCL (Aldrich, Milwannee, WI) by means of a probe in the dose of 25 mg per 100 g of body weight. The ulcer, approximately 28 mm^2 in size, appeared at the boundary between antral and fundal segments of the stomach 12 hours after the last administration. Simultaneously with the first administration of cysteamine-HCL a Helicobacter pylori culture (Curtin Matheson Scientific Inc, strain Cag J117, 100 microbial cells) was administered in the rat stomach through the same probe.
(§1) A means on the basis of the pharmaceutical composition comprising the studied peptide H-Glu-Asp-Gly-OH was administered subcutaneously in the dose of 1 µg per kg of animal body weight (group 3a), 2,5 µg per kg of body weight (group 3b) and 10 µg per kg of body weight (group 3c) in 0,5 ml of saline solution daily, for 5 days from the occurrence of the stomach ulcer.
as §1, with “The means” for “A means”, “administered intragastrically (through a probe)” for “administered subcutaneously”, “(group 3d),” for “(group 3a),”, “(group 3e)” for “(group 3b)”, “(group 3f)” for “(group 3c)”
Antibiotic Klacid (clarithromycin, Abbott) was administered intramuscularly in the dose of 10 mg in 1 ml of saline solution daily for 5 days from the occurrence of the stomach ulcer.
Material for study was taken from ulcer edge on the 7th day (for western blot assay and polymerase chain reaction in real time - RT-PCR), as well as on the 7th, 15th and 21st day for morphology study and confocal microscopy.
For a morphology study, pieces of gastric mucous membrane from the ulcer edge were fixed in 10% neutral formalin (pH 7.2), then the material was dried out in a Leica TP1020 automatic station (Leica) and covered with paraffin. 5 µm thick paraffin slices were placed on object plates covered with a poly-L-lysine film (Sigma). For a visual study the slices were stained with hematoxylin and eosin, as well as with picrofuxin by the van Gison method.

[1] = tested on: human gastric epithelium cells SGC7901; experiment: Effect on Helicobacter pylori-induced mitochondrial mechanisms of apoptosis in gastric epitheliocytes (mito-GFP confocal microscopy); format: cell-based; details: Klacid 500 ng/mL as positive control, same conditions as peptide 10 µM
Description: To evaluate the biological activity and effects of peptide H-Glu-Asp-Gly-OH on mitochondrial mechanisms of apoptosis in gastric epitheliocytes, induced by Helicobacter pylori germs, human gastric epithelium cells SGC7901 were studied. The cells were cultivated at 37°C in a damp incubation medium containing 50 mL/L CO2 in DMEM (Dulbecco's Modified Eagle's Medium, ICN Biomedicals) and 10% calf embryonic serum. A preliminary separation of cells for passaging was carried out in the ratio of 1:3-1:5 using a mixture of 0.125% trypsin, 0.02M EDTA (ethylenediaminetetraacetic acid), 0.02% glucose dissolved in a phosphate buffer. The cells were placed on a 24-well plate in the amount of 10^6 cells per well. The cells were passaged in a cultivation medium for 5 days and then taken for study.
On the 5th day after the beginning of cell passaging the peptide H-Glu-Asp-Gly-OH in the dose of 10 µM was administered in the cultivation medium, and in 30 minutes of incubation the cells were taken for study. Klacid antibiotic (clarithromycin, Abbott) in the dose of 500 ng/mL was administered to the cultures in the same conditions as positive control. […]
The status of isolated mitochondria was evaluated using immunofluorescent confocal laser microscopy. […]
Confocal microscopy of mitochondria with optical density evaluation was performed in an inverted confocal microscope Olympus Fluoview CM FV300-IX70 using an apochromatic lens 606 UPlan (Olympus). A 488 nm excitation wave of argon laser was used in each chamber to specify mito-GFP fluorescence that verifies the structure of mitochondria.

CC[C@H]1OC(=O)[C@H](C)[C@@H](O[C@H]2C[C@@](C)(OC)[C@@H](O)[C@H](C)O2)[C@H](C)[C@@H](O[C@@H]2O[C@H](C)C[C@H](N(C)C)[C@H]2O)[C@](C)(OC)C[C@@H](C)C(=O)[C@H](C)[C@@H](O)[C@]1(C)O [Klacid, clarithromycin]
ulcer pathomorphosis, 7th day (modeled ulcer; 7th day after ulcer induction, peptide 1, 2,5, 10 µg/kg subcutaneously or intragastrically): largely similar to the changes in Group 3
ulcer pathomorphosis, 15th day (modeled ulcer; 15th day after ulcer induction, peptide 1, 2,5, 10 µg/kg subcutaneously or intragastrically): The same changes were observed
ulcer pathomorphosis, 21st day (modeled ulcer; 21st day after ulcer induction, peptide both methods of administration and three dosages): caused the same changes
biological activity (prevention of Helicobacter pylori-induced mitochondrial apoptosis disorder) relative to the peptide composition [1]: comparable in terms of efficiency
